Data published in PMC10850954, “HDAC6/aggresome processing pathway importance for inflammasome formation is context-dependent” (The Journal of Biological Chemistry, 2024).

Experiments:
HDAC6 [1] = target: T1, HDAC6 (Homo sapiens, UniProt Q9UBN7); design: method as in PMID 34314730; details: cited from earlier work
T1 sequence (Q9UBN7 1-1215): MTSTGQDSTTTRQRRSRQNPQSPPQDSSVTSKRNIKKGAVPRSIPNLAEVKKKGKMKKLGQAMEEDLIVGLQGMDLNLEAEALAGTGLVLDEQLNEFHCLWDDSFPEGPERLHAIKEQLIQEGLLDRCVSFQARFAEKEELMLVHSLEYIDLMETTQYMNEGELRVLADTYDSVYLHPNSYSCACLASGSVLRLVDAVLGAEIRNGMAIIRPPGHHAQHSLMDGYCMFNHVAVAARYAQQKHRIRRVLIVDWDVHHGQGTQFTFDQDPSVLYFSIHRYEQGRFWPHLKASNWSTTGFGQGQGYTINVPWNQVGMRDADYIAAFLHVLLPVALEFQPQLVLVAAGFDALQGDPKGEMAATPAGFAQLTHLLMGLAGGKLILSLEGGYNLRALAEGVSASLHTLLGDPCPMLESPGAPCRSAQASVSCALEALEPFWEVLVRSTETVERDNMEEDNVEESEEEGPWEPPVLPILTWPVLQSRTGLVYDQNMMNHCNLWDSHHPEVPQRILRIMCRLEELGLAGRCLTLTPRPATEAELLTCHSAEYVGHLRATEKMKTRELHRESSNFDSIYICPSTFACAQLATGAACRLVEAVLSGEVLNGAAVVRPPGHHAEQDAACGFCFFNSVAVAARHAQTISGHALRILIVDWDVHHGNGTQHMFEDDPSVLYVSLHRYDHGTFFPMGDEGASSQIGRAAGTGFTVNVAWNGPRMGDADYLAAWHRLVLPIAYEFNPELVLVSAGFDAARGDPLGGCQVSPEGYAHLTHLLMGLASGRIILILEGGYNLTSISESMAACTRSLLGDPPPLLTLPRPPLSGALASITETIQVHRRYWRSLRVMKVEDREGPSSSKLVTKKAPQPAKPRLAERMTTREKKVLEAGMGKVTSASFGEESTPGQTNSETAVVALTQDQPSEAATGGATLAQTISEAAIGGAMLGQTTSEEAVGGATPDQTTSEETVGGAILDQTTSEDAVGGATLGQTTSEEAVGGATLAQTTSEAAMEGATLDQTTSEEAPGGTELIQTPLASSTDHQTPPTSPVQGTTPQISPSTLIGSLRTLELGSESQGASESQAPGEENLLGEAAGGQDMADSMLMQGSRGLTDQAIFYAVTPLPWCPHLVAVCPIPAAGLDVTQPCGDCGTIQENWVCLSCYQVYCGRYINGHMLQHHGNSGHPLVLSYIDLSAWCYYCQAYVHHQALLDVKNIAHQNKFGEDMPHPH

NLRP3 inflammasome = experiment: IL-1β release in PBMCs after NLRP3 inflammasome activation; assay type: cell-based, human; details: for effect on IL-1β release (in words): all stimulatory conditions (MSU, nigericin, ATP), vs DMSO; for IL-1β reduction as compared to DMSO: compound 24 h, LPS 0.2 ng/ml 4 h
Protocol: Figure 3 Effect of […] mediated HDAC6 degradation on NLRP3 inflammasome activation in PBMCs.A, schematic of the mode of action of an HDAC6 degrader. The PROTAC engages both HDAC6 and the E3 ligase cereblon (CRBN), which then leads to ubiquitination and degradation of HDAC6. […] PBMCs (without or with LPS priming for 4 h) were treated with the indicated compounds and HDAC6 levels were detected by immunoblotting with an anti-HDAC6 antibody. Detection of actin was used as a control for loading. CGP, CGP084892 (Caspase-1 inhibitor); AFN700 is an inhibitor of the NF-kB pathway (IKK inhibitor). E, HDAC6 degradation impact on IL-1β release in PBMCs following MSU 200 μg/ml (5 h), nigericin 2 μM (2 h) or ATP 3 mM (0.5 h) treatment. Cells were first primed with 0.2 ng/ml LPS for 4 h at 37 °C, then treated with MSU, nigericin, and ATP as indicated.
Human IL-1β and IL-18 were determined with Cisbio HTRF Cisbio Human IL1β (#62HIL1BPET) and Human IL18 (#62HIL18PEG) protocols. All the data were from 3 or 4 independent biological replicates.
For BMDM cells, 1.5 × 10^6 cells per well were seeded in six-well plates. After priming with 1 μg/ml LPS (Invivogen #tlrl-b5lps), cells were challenged with 200 μg/ml MSU crystals (Invivogen #tlrl-msu-25) for 6 h or 20 μM nigericin (Sigma-Aldrich #N7143-5MG) for 30 min. […] The supernatant was removed, and fresh medium was added to have cells at a density of around 5 × 10^5 cells/ml. 100 μl cells were seeded in 96-well plate and incubated for 1∼2 days. During the culturing, dTAG was added when needed to degrade the DARPin. […] For PBMCs, 3 × 10^4 cells per were seeded, and primed with 0.2 ng/ml LPS for 4 h and then incubated with MSU 200 μg/ml (5 h), nigericin 2 μM (2 h) or ATP 3 mM (0.5 h). For pyrin inflammasome, U937-pyrin cells were seeded in 96 well after 0.5 μM PMA treatment for 3 h and then challenged by BAA473 (200 μM) for 4 h at 37 °C.

HDAC6 [2] = target: T1, HDAC6; experiment: HDAC6 degradation in pyrin-expressing U937 cells (immunoblot); assay type: cell-based; design: endogenous in cells; details: 0.1 μM to 10 μM
Protocol: Cells were treated with the indicated compounds and HDAC6 was detected by immunoblotting with an anti-HDAC6 antibody. Detection of actin was used as a control for protein loading. […] The membrane was blocked with 5% milk-TBS, and then incubated with primary antibodies overnight at 4 °C. The signal was developed with HRP-conjugated secondary antibodies and Amersham ECL Western Blotting Detection Reagent (Cytiva#RPN2106).

pyrin inflammasome = experiment: IL-18 release in U937-pyrin cells after BAA473 activation; assay type: cell-based, human; details: BAA473 200 μM 4 h, vs DMSO or XY-07-191 control
Protocol: Cells were treated with the indicated compounds and HDAC6 was detected by immunoblotting with an anti-HDAC6 antibody. Detection of actin was used as a control for protein loading. […] Pyrin inflammasome was activated by BAA473 (200 μM) for 4 h at 37 °C. […] The graph at the bottom presents IL-18 release based on four independent experiments.

Row | SMILES | degradation profile (specificity) (HDAC6 [1]) | effect on IL-1β release (in words) (NLRP3 inflammasome) | IL-1β reduction as compared to DMSO (NLRP3 inflammasome; ATP 3 mM 0.5 h) | IL-1β reduction as compared to DMSO (NLRP3 inflammasome; MSU 200 μg/ml 5 h) | IL-1β reduction as compared to DMSO (NLRP3 inflammasome; nigericin 2 μM 2 h) | HDAC6 degradation (HDAC6 [2]) | change in IL-18 secretion (pyrin inflammasome)
1 | CN(C(=O)CCCNc1cccc2c1C(=O)N(C1CCC(=O)NC1=O)C2=O)c1ccc(NC(=O)CCCCCCC(=O)NO)cc1 (centres unmarked) [XY-07-35] | highly specific for HDAC6 | clearly reduced | 40% | ca. 60% | 40% | efficiently degraded | did not result in any change
2 | CN1C(=O)CCC(N2C(=O)c3cccc(NCCCC(=O)N(C)c4ccc(NC(=O)CCCCCCC(=O)NO)cc4)c3C2=O)C1=O (centres unmarked) [XY-07-191] |  | partial inhibition |  |  |  |  | 
